# Source: patent publication US12560591B2, “Methods of treatment with CD8 T cell-mediated immune therapy” (Providence Health & Services—Oregon, priority 2019, dated 2026)
# Assays:
# [1] = test system: tumor infiltrating immune cells; assay: FACS analysis of tumor-infiltrating immune cells after LY treatment; assay type: in vivo, mouse
# MC38 tumors = assay: MC38 tumor model in ALK5^ΔCD8 mice, survival and tumor growth; assay type: in vivo, mouse; conditions: addition of LY2157299 in ALK5^ΔCD8 mice with MC38 tumors, FIGS. 5B and 5C
# Description: FIG. 5A is a schematic showing the treatment strategy in the MC38 tumor model. C57BL/6 Wild-type (n=6-9/group) and ALK5^ΔCD8 (n=4-10/group) mice were implanted subcutaneously with MC38 tumor cells followed four days later by injection of some groups with anti-CD8a mAb to specifically deplete CD8^+ T cells. In other groups, mice also received LY2157299 via oral gavage twice daily (150 mg/kg) for seven days. Survival of mice was monitored until day 90 (FIG. 5B). […] The number of tumors cured over the total number of tumor-bearing mice is shown in the top right of each graph. Data from a representative experiment is shown reflective of two independent experiments total. ***=p<0.001.
# Animal studies and cell culture: C57BL/6, BALB/c, CD8Cre, Lyz2Cre, and Foxp3-eGFP-CreERT2 mice were purchased from the Jackson Laboratories (Bar Harbor, Maine). ALK5flox/flox mice were a generous gift from Andrew Weinberg (Providence Cancer Center). All transgenic mice were on C57BL/6 background. […] Tumors were measured 3×/week until they reached the survival end-point of 144 mm^2. […] Following single cell preparation, cells were washed and resuspended in FACS buffer (1×PBS, 1% BSA, 2 mM EDTA) and counted prior to FACS staining using a Guava EasyCyte cytometer (Millipore). […]
# Whether the improved survival and radiosensitivity observed in ALK5^ΔCD8 mice was dependent on CD8^+ T cells was next evaluated. […]
# [2] = LY-treated vs vehicle animals, day 14, FIG. 8E
compound,measurement,setting,value
Cc1cccc(-c2nn3c(c2-c2ccnc4ccc(C(N)=O)cc24)CCC3)n1 [LY2157299],tumor-infiltrating effector population (tSNE of flow cytometric data),"[1]; LY versus vehicle control treated animals, data not shown",enrichment of the tumor-infiltrating effector population
same,CD8^+ T cells infiltrating tumors,[1]; [2],more CD8^+ T cells
same,macrophages and Tregs infiltrating tumors,[1]; [2],fewer macrophages and Tregs
same,percentage of CD8^+ T cells expressing EOMES and Tbet,"[1]; spleens, lymph nodes and CT26 tumors of LY-treated mice, FIG. 8F",increase
same,survival or tumor growth kinetics,MC38 tumors,no improvement in survival or tumor growth kinetics
